These results are taken from patent US7816566B2, “p-Menthan-3-ol alkylated derivatives and their use as refreshing agents” (Robertet S.A., priority 2004, dated 2010).

Where two headings read alike, the source gives them in different places.

Series [1] is described as follows: refreshing effect in a tobacco flavouring composition. Format: in vivo. As to conditions: approximately 0.05 g per kilogram of tobacco. The source says:
Approximately 0.05 g of (−)-(1R,3R,4S)-3-hydroxy-p-menthane-3-[…] is used per kilogram of tobacco.

The conditions of series [2]: cited from earlier work; for refreshing effect: prior art.
Series [3] is described as follows: refreshing effect in a mouthwash flavouring composition. Format: in vivo. As to conditions: approximately 0.2 g per litre of prepared mouthwash. An excerpt:
Approximately 0.2 g of (−)-(1R,3R,4S)-3-hydroxy-p-menthane-3-methanol is used per litre of prepared mouthwash.

The nature of series [4]: refreshing effect in boiled sweets. The format is in vivo. As to conditions: 0.2 g per kilogramme of final product. Here is the method:
A solution of saccharose (350 g) in water (110 g) is prepared which is boiled at 107° C. 150 g of glucose syrup is added and boiled at 148° C. The flavouring, citric acid and colouring agent are added at a temperature of approximately 120°, and 0.2 g of (−)-(1R,3R,4S)-3-hydroxy-p-menthane-3-methanol is added per kilogramme of final product.

Series [5] in a line: organoleptic evaluation of the compounds: refreshing effect, bitterness, odour. The format is in vivo. As to conditions: sensation of freshness, intensity in words.
A short description of series [6]: hydrophilic nature of the compound. Format: physicochemical.
For series [7] the following is noted: prior art; cited from earlier work.

In the case of `CC(C)[C@@H]1CC[C@@H](C)C[C@@]1(O)CCO` [1a, (−)-(1R,3R,4S)-3-hydroxy-p-menthane-3-ethanol], the melting point (usually the temperature, or range, at which the solid turns liquid) was 80 to 82 °C. Also, the refreshing effect result in series [1] is listed as “A refreshing effect is obtained”.
Take `CC(C)[C@@H]1CC[C@@H](C)C[C@]1(O)CCO` [1b, (−)-(1R,3S,4S)-3-hydroxy-p-menthane-3-ethanol]: the melting point lay within 84 to 86 °C.
Turning to `CNC(=O)C(C)(C(C)C)C(C)C` [2-isopropyl-N,2,3-trimethylbutyramide], the refreshing effect result in series [2] is “very active”.
For the compound `CC(C)[C@@H]1CC[C@@H](C)C[C@]1(O)CO` [2a, (−)-(1R,3R,4S)3-hydroxy-p-menthane-3-methanol], the melting point lay in the range of 80 to 82 °C. Besides, in series [3], the refreshing effect entry is reported as “A refreshing effect is obtained”. Moreover, the refreshing effect entry in series [4] is “A very distinct refreshing effect is obtained”.
With `CC(C)[C@@H]1CC[C@@H](C)C[C@@]1(O)CO` [2b, (−)-(1R,3S,4S)-3-hydroxy-p-menthane-3-methanol], the melting point is 48 to 50 °C.
As to `CC1=C(N2CCCC2)C(=O)OC1` [4-methyl-3-(1-pyrrolidinyl)-2[5H]furanone], the refreshing effect result in series [2] is “very intense refreshing effect”.
Turning to `CC(C)[C@@H]1CC[C@@H](C)C[C@]1(O)C(O)CO` (stereo partly drawn) [compound 3, (1R,3R,4S)-3-hydroxy-p-menthane-3-(ethane-1,2-diol)], in series [5], the refreshing effect result is listed as “intense”. For the same compound, in series [6], the hydrophilic nature entry was “hydrophilic”.
`CC(C)[C@@H]1CC[C@@H](C)C[C@@]1(O)C(C)CO` (some centres unmarked) [compound 4]: in series [5], the refreshing effect result is given as “reduced intensity”.
Consider `CC(O)C[C@]1(O)C[C@H](C)CC[C@H]1C(C)C` (some centres unmarked) [compound 5], for which, in series [5], the refreshing effect result is listed as “reduced intensity”.
With `CC(C)[C@@H]1CC[C@@H](C)C[C@@]1(O)CC(C)(C)O` [compound 6], the refreshing effect entry in series [5] is “reduced intensity”.
With `CC(C)[C@@H]1CC[C@@H](C)C[C@]1(CO)OCCO` [compound 11], the refreshing effect result in series [5] is “not endowed with a particularly intense refreshing effect”.
Take `CC(C)[C@@H]1CC[C@@H](C)C[C@H]1O` [l-menthol]: in series [2] (when used at a high concentration), the burning sensation entry is listed as “can cause a burning sensation”. The volatility entry in series [7] is “too high volatility”.
